In the supplement of paper PMC10307832:

Tests used:
Test in all cases: relative viability (nuclei count vs DMSO), 5 days (fraction); higher = more cells survive
Adavosertib + Pictilisib = compound: C=CCn1c(=O)c2cnc(Nc3ccc(N4CCN(C)CC4)cc3)nc2n1-c1cccc(C(C)(C)O)n1 [Adavosertib] + CS(=O)(=O)N1CCN(Cc2cc3nc(-c4cccc5[nH]ncc45)nc(N4CCOCC4)c3s2)CC1 [Pictilisib] (partner 1 µM)
How it was run: (§1)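 Nuclei were stained with Hoechst during a one-step fixation (final 0.05% Triton X-100, 1% formaldehyde, 1 ug/ml Hoechst) carried out 5 days after dosing, then counted on 4× images. The cells, lung cancer lines in 1536-well plates, had been dosed by pin tool the day after seeding with one drug alone or a fixed anchor-drug dose plus five library-drug doses (not always all listed) in √10 steps. Relative viability is the nuclei count in treated wells divided by that in vehicle wells, and each value is the median of duplicate plates.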

Adavosertib + Bortezomib = compound: C=CCn1c(=O)c2cnc(Nc3ccc(N4CCN(C)CC4)cc3)nc2n1-c1cccc(C(C)(C)O)n1 [Adavosertib] + CC(C)C[C@H](NC(=O)[C@H](Cc1ccccc1)NC(=O)c1cnccn1)B(O)O [Bortezomib] (partner 0.002 µM)
How it was run: as §1

Nelarabine + Dasatinib = compound: COc1nc(N)nc2c1ncn2[C@@H]1O[C@H](CO)[C@@H](O)[C@@H]1O [Nelarabine] + Cc1nc(Nc2ncc(C(=O)Nc3c(C)cccc3Cl)s2)cc(N2CCN(CCO)CC2)n1 [Dasatinib] (partner 0.075 µM)
How it was run: as §1

Adavosertib + Olaparib = compound: C=CCn1c(=O)c2cnc(Nc3ccc(N4CCN(C)CC4)cc3)nc2n1-c1cccc(C(C)(C)O)n1 [Adavosertib] + O=C(c1cc(Cc2n[nH]c(=O)c3ccccc23)ccc1F)N1CCN(C(=O)C2CC2)CC1 [Olaparib] (partner 8 µM)
How it was run: as §1

Cell Line | relative viability (Adavosertib + Pictilisib; first compound 0.01 µM) | relative viability (Adavosertib + Pictilisib; first compound 0.03162 µM) | relative viability (Adavosertib + Pictilisib; first compound 0.1 µM) | relative viability (Adavosertib + Pictilisib; first compound 0.3162 µM) | relative viability (Adavosertib + Bortezomib; first compound 0.01 µM) | relative viability (Adavosertib + Bortezomib; first compound 0.03162 µM) | relative viability (Adavosertib + Bortezomib; first compound 0.1 µM) | relative viability (Adavosertib + Bortezomib; first compound 0.3162 µM) | relative viability (Nelarabine + Dasatinib; first compound 0.01 µM) | relative viability (Nelarabine + Dasatinib; first compound 0.03162 µM) | relative viability (Nelarabine + Dasatinib; first compound 0.1 µM) | relative viability (Nelarabine + Dasatinib; first compound 0.3162 µM) | relative viability (Nelarabine + Dasatinib; first compound 1 µM) | relative viability (Adavosertib + Olaparib; first compound 0.01 µM) | relative viability (Adavosertib + Olaparib; first compound 0.03162 µM) | relative viability (Adavosertib + Olaparib; first compound 0.1 µM) | relative viability (Adavosertib + Olaparib; first compound 0.3162 µM)
NCI-H596 | 0.338 | 0.379 | 0.419 | 0.348 | 1.27 | 1.01 | 1 | 1.14 | 0.752 | 0.571 | 0.488 | 0.581 | 0.666 | 0.736 | 0.791 | 0.52 | 0.591
NCI-H647 | 0.453 | 0.471 | 0.405 | 0.318 | 1.01 | 0.748 | 1.11 | 0.642 | 0.152 | 0.252 | 0.136 | 0.183 | 0.261 | 0.549 | 0.581 | 0.459 | 0.209
NCI-H650 | 0.926 | 1.04 | 1.05 | 0.805 | 0.597 | 0.795 | 1.07 | 0.663 | 0.501 | 0.48 | 0.417 | 0.51 | 0.468 | 0.397 | 0.412 | 0.397 | 0.207
NCI-H661 | 0.33 | 0.415 | 0.352 | 0.322 | 0.941 | 0.695 | 0.889 | 0.738 | 1 | 0.913 | 0.953 | 0.934 | 0.853 | 0.779 | 0.828 | 0.721 | 0.449
NCI-H727 | 0.525 | 0.341 | 0.359 | 0.366 | 0.867 | 0.869 | 0.877 | 0.945 | 0.318 | 0.418 | 0.295 | 0.249 | 0.44 | 0.73 | 0.845 | 0.683 | 0.744
NCI-H838 | 0.446 | 0.411 | 0.449 | 0.485 | 0.993 | 0.946 | 0.754 | 0.824 | 0.276 | 0.217 | 0.225 | 0.321 | 0.374 | 0.784 | 0.805 | 0.804 | 0.613
NCI-H1355 | 0.476 | 0.404 | 0.45 | 0.378 | 1.15 | 1.17 | 1.18 | 1.16 | 0.849 | 0.573 | 0.564 | 0.744 | 0.706 | 0.736 | 0.698 | 0.757 | 0.685
NCI-H1437 | 0.371 | 0.435 | 0.401 | 0.404 | 0.56 | 0.596 | 0.475 | 0.518 | 0.554 | 0.468 | 0.304 | 0.466 | 0.362 | 0.65 | 0.613 | 0.643 | 0.566
NCI-H1650 | 0.652 | 0.579 | 0.506 | 0.3 | 0.223 | 0.211 | 0.207 | 0.194 | 0.265 | 0.329 | 0.27 | 0.305 | 0.329 | 0.714 | 0.708 | 0.76 | 0.622
